From patent publication US10414891B2, “Polyurethane curatives” (The Shepherd Chemical Company, priority 2015, dated 2019)

Experiments:
[1] = Accelerated aging of curatives in polyol mix with water and temperature; format: physicochemical; conditions: curative 2.0 parts
Text: [Note: polyols supplied to Shepherd as their 4-component polyol systems by Huntsman.] BiCAT 8108 is bismuth neodecanoate, 20 wt % bismuth.

[2] = Moisture stability of curative in polyol side of two-part TDI spray-foam system; format: physicochemical
Experimental: BiCAT 8842 was used in a two-part polyurethane system (TDI) for spray-foam applications. The BiCAT 8842 was added at 0.125 wt % to the polyol side (B-part). In addition, the polyol side contained 2.5 wt % water. […] The same dosage of stannous octoate curative was added to the TDI-tin-based control formulation.

[3] = DAY 1, DI water 2.5 parts, oven 130° F.
[4] = DAY 2, DI water 2.5 parts, oven 130° F.
[5] = DAY 3, DI water 2.5 parts, oven 130° F.
[6] = DAY 4, DI water 2.5 parts, oven 160° F.
[7] = DAY 5, DI water 4.0 parts, oven 160° F.
[8] = DAY 6, DI water 4.0 parts, oven 160° F.

| Substance | Stability [1, 3] | Stability [1, 4] | Stability [1, 5] | Stability [1, 6] | Stability [1, 7] | Stability [1, 8] | stability in the presence of moisture ([2]; 0.125 wt % in polyol side (B-part) containing 2.5 wt % water) | time until formulation began to turn white (bismuth hydrolysis to the hydroxide) ([2]; same use level, polyol side containing 2.5 wt % water) |
| --- | --- | --- | --- | --- | --- | --- | --- | --- |
| bismuth neodecanoate [BiCAT 8108, reference compound] | transparent | transparent | transparent | transparent | very sl. hazy | opaque; ppt formation | – | – |
| bismuth, 1,1′,1″,1′″-(1,2-ethanediyldinitrilo)tetrakis[2-propanol] neodecanoate complexes [Curative 8840] | transparent | transparent | transparent | transparent | transparent | transparent | – | – |
| bismuth, 2,2′,2″,2′″-(1,2-ethanediyldinitrilo)tetrakis[ethanol] neodecanoate complexes [Curative 8842] | transparent | transparent | transparent | transparent | transparent | transparent | remained stable for many weeks | – |
| bismuth neodecanoate [reference compound] | – | – | – | – | – | – | – | ~14 min |
